The target in experiment [1] is T1, factor Xa (Homo sapiens, UniProt P00742). Put plainly: In vitro Factor Xa assay (Test 1a), chromogenic substrate S-2765. Set-up: purchased Enzyme Research Laboratories, Inc; South Bend, Ind. It counts as biochemical. Particulars: Factor Xa inhibitory activity; Ki from IC50 corrected for substrate competition; 25° C., pH 7.8; read-out: Ki (FXa). Here is the method:
Purified enzymes are used in chromogenic assays. To determine the inhibition constant, the IC50 value is corrected for competition with substrate using the formula: […] where Km is the Michaelis-Menten-constant (Y.-C. Chen and W. H. Prusoff, Biochem. Pharmacol. 22: […] (1973), which is incorporated herein by reference). TBS-PEG buffer (50 mM Tris-Cl, pH 7.8, 200 mM NaCl, 0.05% (w/v) PEG-8000, 0.02% (w/v) NaN3) is used for this assay. The IC50 is determined by combining in appropriate wells of a Costar half-area microtiter plate 25 μl human factor Xa (Enzyme Research Laboratories, Inc.; South Bend, Ind.) in TBS-PEG; 40 μl 10% (v/v) DMSO in TBS-PEG (uninhibited control) or various concentrations of the compound to be tested diluted in 10% (v/v) DMSO in TBS-PEG; and substrate S-2765 (N-benzyloxycarbonyl-[…]-nitroanilide; Kabi Pharmacia, Inc.; Franklin Ohio) in TBS-PEG. […] The initial velocity of chromogenic substrate hydrolysis is measured by the change in absorbance at 405 nm using a Bio-tek Instruments kinetic plate reader ([…] 25° C. during the linear portion of the time course (usually 1.5 min after addition of substrate).

For the next experiment, the system named is thrombin and factor Xa. Particulars: rate of inactivation thrombin vs factor Xa; cited from earlier work.
For experiment [2] the following is noted: TAP at less than about two fold aPTT prolongation; heparin at doses causing five fold aPTT increase; cited from earlier work.
For experiment [3], the target named is T1, factor Xa. Particulars: cited from earlier work.
For experiment [4] the following is noted: recombinantly-produced inhibitor; cited from earlier work.
The conditions of experiment [5]: subcutaneous; cited from earlier work.

Where a name gives a salt, the structure may show the parent alone. Read-outs that look alike come from different tables or passages of the source.

T1 sequence (P00742 235-488 limits assumed): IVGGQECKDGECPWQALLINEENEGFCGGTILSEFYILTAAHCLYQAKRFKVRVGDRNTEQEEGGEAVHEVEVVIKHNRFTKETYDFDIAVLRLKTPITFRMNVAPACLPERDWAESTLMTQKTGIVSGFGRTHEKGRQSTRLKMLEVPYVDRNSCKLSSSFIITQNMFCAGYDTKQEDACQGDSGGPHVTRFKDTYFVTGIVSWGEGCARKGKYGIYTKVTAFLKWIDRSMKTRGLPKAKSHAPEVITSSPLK
T1 sequence (P00742 41-179 partner limits assumed): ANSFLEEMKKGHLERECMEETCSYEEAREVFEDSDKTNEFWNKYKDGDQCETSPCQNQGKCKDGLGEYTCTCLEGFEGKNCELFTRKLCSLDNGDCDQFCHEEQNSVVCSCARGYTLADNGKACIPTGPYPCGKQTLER

For `CN(Cc1ccccc1)C(=O)C(Cc1ccc(C(=N)N)cc1)C(=O)N[C@H](C(=O)N[C@@H](CCCNC(=N)N)C(N)=O)C1CCCCC1` (stereo partly drawn) [Example 144, N-Benzyl-2-(4-carbamimidoyl-benzyl)-N′-[(S)-(1-(S)-carbamoyl-4-guanidino-butylcarbamoyl)-cyclohexyl-methyl]-N-methyl-malonamide trifluoroacetic acid salt], the Ki (usually the equilibrium dissociation constant of an inhibitor or competing ligand from its target) on factor Xa [1] came to 11 nM.
On to heparin [reference compound], for which, in the experiment on thrombin and factor Xa, the “thrombin inactivated faster than factor Xa” value is reported as “approximately 100 times”. For the same molecule, the “prevention of high-shear arterial thrombosis and reduced flow in graft” value in experiment [2] is listed as “did not prevent thrombosis”.
In the case of “tick anticoagulant peptide (YNRLCIKPRDWIDECDSNEGGERAYFRNGKGGCDSFWICPEDHTGADYYSSYRDCFNACI; UniProt P17726 1-60, looked up) [TAP]”, the Ki with factor Xa [3] was roughly 0.5 nM. Besides, the prevention of clotting result in experiment [4] is “prevent clotting”. Besides, in experiment [2], the “prevention of high-shear arterial thrombosis and reduced flow in graft” value is “effectively prevents”.

B1: antistasin (protein, UniProt P15358 18-136, looked up)
Antistasin: QGPFGPGCEEAGCPEGSACNIITDRCTCSGVRCRMHCPHGFQRSRYGCEFCKCRLEPMKATCDISECPEGMMCSRLTNKCDCKIDINCRKTCPNGLKRDKLGCEYCECRPKRKLIPRLS
For the molecule B1, in the experiment with factor Xa [3], the Ki was 0.05 nM. In experiment [4], the prevention of clotting result is recorded as “prevent clotting”. In experiment [5], the “treatment effect in DIC model” value was “effective treatment”.

These data come from US6794365B2, “Malonic acid derivatives, processes for their preparation their use and pharmaceutical compositions containing them” (Aventis Pharma Deutschland GmbH, priority 2000, dated 2004).
